Like-named read-outs stand apart in the source and are kept apart here.
Key:
PI3K = PI3K (Homo sapiens, UniProt P42336); experiment: Fluorescence polarization assay for PI3K; type: biochemical;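 also: PI3K kinase reaction on PIP2 with ATP, 30-60 min, product sensed by GST-GRP with red probe in fluorescence polarization (mP), controls without enzyme and at zero time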
prostate line LNCap = experiment: In vitro cell culture growth assay (MTS), LNCap; type: cell-based, human; details: LNCap cells, three days after drug treatment;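 also: viable cell density read by absorbance at 490 nm, growth expressed as percent of vehicle-treated cells on the same plate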
breast line MDA468 = experiment: In vitro cell culture growth assay (MTS), MDA468; type: cell-based, human; details: MDA468 cells, three days after drug treatment
In short: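 Steps: plate cells; add inhibitors the next day; incubate 3 days; add MTS dye, which viable cells convert metabolically; measure absorbance at 490 nm; calculate percent of control growth relative to vehicle-treated cells in the same plate.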

PI3K, sequence (P42336 whole entry): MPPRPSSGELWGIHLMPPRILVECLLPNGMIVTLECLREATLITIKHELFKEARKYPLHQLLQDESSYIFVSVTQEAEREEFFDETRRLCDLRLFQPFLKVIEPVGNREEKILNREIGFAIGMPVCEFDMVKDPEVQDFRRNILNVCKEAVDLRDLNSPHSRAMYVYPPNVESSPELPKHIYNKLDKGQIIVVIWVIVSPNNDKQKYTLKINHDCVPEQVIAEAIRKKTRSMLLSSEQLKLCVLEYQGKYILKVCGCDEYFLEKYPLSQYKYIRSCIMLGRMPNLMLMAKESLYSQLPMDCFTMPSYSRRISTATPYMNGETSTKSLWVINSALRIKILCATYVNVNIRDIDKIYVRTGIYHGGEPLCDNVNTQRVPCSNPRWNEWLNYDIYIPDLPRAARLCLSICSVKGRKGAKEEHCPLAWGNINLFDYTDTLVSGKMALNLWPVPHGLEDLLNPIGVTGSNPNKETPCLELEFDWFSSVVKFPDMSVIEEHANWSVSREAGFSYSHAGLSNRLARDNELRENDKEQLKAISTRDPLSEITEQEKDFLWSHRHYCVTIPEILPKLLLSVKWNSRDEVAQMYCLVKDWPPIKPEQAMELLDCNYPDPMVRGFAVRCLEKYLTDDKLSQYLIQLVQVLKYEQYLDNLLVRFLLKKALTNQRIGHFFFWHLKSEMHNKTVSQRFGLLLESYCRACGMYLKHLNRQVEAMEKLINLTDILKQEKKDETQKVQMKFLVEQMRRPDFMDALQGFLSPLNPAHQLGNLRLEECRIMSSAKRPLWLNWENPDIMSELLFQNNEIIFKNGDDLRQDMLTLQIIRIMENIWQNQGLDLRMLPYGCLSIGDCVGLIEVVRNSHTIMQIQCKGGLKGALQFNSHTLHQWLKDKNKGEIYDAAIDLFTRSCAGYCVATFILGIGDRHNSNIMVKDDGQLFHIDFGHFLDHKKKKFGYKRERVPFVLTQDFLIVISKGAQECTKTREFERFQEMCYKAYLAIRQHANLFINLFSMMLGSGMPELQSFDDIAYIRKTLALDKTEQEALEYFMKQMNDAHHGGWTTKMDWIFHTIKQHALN
PI3K, sequence (P27986 whole entry partner): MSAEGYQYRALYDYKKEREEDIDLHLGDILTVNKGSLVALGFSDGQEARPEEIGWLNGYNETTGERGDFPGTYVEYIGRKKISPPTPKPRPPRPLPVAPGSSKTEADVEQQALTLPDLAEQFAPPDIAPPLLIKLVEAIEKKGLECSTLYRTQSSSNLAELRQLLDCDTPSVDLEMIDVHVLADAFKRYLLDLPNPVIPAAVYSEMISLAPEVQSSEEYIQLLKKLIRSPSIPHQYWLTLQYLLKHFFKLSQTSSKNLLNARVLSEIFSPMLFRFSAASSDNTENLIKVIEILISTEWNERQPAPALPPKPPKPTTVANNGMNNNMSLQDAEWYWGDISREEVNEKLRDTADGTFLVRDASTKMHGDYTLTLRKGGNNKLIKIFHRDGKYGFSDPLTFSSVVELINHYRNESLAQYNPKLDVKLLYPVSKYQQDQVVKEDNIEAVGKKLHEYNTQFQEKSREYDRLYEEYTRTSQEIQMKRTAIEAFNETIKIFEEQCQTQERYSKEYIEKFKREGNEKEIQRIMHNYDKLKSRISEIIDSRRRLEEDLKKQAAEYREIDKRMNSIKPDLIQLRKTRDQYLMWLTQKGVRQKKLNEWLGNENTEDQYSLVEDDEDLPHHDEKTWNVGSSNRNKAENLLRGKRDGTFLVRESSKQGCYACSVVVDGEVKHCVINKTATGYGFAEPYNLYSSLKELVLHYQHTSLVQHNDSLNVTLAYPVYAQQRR

Molecule | IC50 (PI3K; PI3Kα, read-out: PI3Kα IC50) [nM] | IC50 (prostate line LNCap; Homo sapiens, LNCaP, 72 h) [nM] | IC50 (breast line MDA468; Homo sapiens, 72 h) [nM] | IC50 (PI3K; PI3Kα IC50, PI3Kα) [nM] | IC50 (prostate line LNCap; Homo sapiens, 72 h) [nM] | IC50 (prostate line LNCap) [nM] | IC50 (breast line MDA468) [nM]
CNC(=O)Nc1ccc(-c2nc(N3CCOCC3)c3cnn(C4CCN(Cc5ccccc5C)CC4)c3n2)cc1 [Example 429, 1-methyl-3-(4-{1-[1-(2-methylbenzyl)piperidin-4-yl]-4-morpholin-4-yl-1H-pyrazolo[3,4-d]pyrimidin-6-yl}phenyl)urea] | 51 | 40 | 200 |  |  |  | 
CCOC(=O)CN1CCC(n2ncc3c(N4CCOCC4)nc(-c4ccc(NC(=O)NC)cc4)nc32)CC1 [Compound 795, ethyl [4-(6-{4-[(methylcarbamoyl)amino]phenyl}-4-morpholin-4-yl-1H-pyrazolo[3,4-d]pyrimidin-1-yl)piperidin-1-yl]acetate] | 158 | 102 | 420 |  |  |  | 
O=C(Nc1ccc(-c2nc(N3CCOCC3)c3cnn(C4CCN(C(=O)OCc5ccccc5)CC4)c3n2)cc1)Nc1cccnc1 [Compound 881, benzyl 4-(4-morpholin-4-yl-6-{4-[(pyridin-3-ylcarbamoyl)amino]phenyl}-1H-pyrazolo[3,4-d]pyrimidin-1-yl)piperidine-1-carboxylate] | 7 | 60 | 300 |  |  |  | 
CS(=O)(=O)Nc1ccc(-c2nc(N3CCOCC3)c3cnn(-c4ccccc4)c3n2)cc1 [Compound 99] | 332 | 3500 | 5000 |  |  |  | 
COCCN1CCC(n2ncc3c(N4CCOCC4)nc(-c4ccc5[nH]ccc5c4)nc32)CC1 [Compound 491, 6-(1H-indol-5-yl)-1-[1-(2-methoxyethyl)piperidin-4-yl]-4-morpholin-4-yl-1H-pyrazolo[3,4-d]pyrimidine] | 5000 | 2400 | 4200 |  |  |  | 
COC(=O)N1CCC(n2ncc3c(N4CCOCC4)nc(-c4ccc(NC(=O)Oc5ccc(Cl)cc5)cc4)nc32)CC1 [Compound 950, methyl 4-[6-(4-{[(4-chlorophenoxy)carbonyl]amino}phenyl)-4-morpholin-4-yl-1H-pyrazolo[3,4-d]pyrimidin-1-yl]piperidine-1-carboxylate] |  |  | 17000 | 9010 | 4900 |  | 
c1ccc(CN2CCC(n3ncc4c(N5CCOCC5)nc(-c5ccc6cc[nH]c6c5)nc43)CC2)cc1 [Compound 49] | 1270 | 2100 | 5800 |  |  |  | 
CCOC(=O)N1CCC(n2ncc3c(N4CCOC[C@@H]4C)nc(-c4ccc(NC(=O)Nc5cccnc5)cc4)nc32)CC1 [Compound 897, ethyl 4-(4-[(3S)-3-methylmorpholin-4-yl]-6-{4-[(pyridin-3-ylcarbamoyl)amino]phenyl}-1H-pyrazolo[3,4-d]pyrimidin-1-yl)piperidine-1-carboxylate] | 28 | 40 | 320 |  |  |  | 
O=C(O)CCC(=O)Nc1ccc(-c2nc(N3CCOCC3)c3cnn(-c4ccccc4)c3n2)cc1 [Compound 109] | 248 | 45000 | 30000 |  |  |  | 
c1ccc(CN2CCC(n3ncc4c(N5CCOCC5)nc(-c5cnc6ccccc6c5)nc43)CC2)cc1 [Compound 484, 3-[1-(1-benzylpiperidin-4-yl)-4-morpholin-4-yl-1H-pyrazolo[3,4-d]pyrimidin-6-yl]quinoline] | 6000 | > 60000 | 22000 |  |  |  | 
CC(C)C(=O)N1CCC(n2ncc3c(N4CCOCC4)nc(-c4ccc(NC(=O)NCCF)cc4)nc32)CC1 [Compound 825, 1-(2-fluoroethyl)-3-{4-[1-(1-isobutyrylpiperidin-4-yl)-4-morpholin-4-yl-1H-pyrazolo[3,4-d]pyrimidin-6-yl]phenyl}urea] | 1670 | 150 | 620 |  |  |  | 
CC(=O)Nc1ccc(-c2nc(N3CCOCC3)c3cnn(-c4ccccc4)c3n2)cn1 [Compound 148] | 162 | 60000 | 60000 |  |  |  | 
NCc1ccc(-c2nc(N3CCOCC3)c3cnn(-c4ccccc4)c3n2)cc1 [Compound 146] | 457 | 1700 | 4000 |  |  |  | 
CNC(=O)Nc1ccc(-c2nc(N3CCOCC3)c3cnn(C4CCN(Cc5ccc(C)cc5)CC4)c3n2)cc1 [Example 431, 1-methyl-3-(4-{1-[1-(4-methylbenzyl)piperidin-4-yl]-4-morpholin-4-yl-1H-pyrazolo[3,4-d]pyrimidin-6-yl}phenyl)urea] | 25 | 27 | 100 |  |  |  | 
COC(=O)Nc1ccc(-c2nc(N3CCOC(C)C3)c3cnn(C4CCN(C(=O)OC)CC4)c3n2)cc1 (stereo not drawn) [Compound 840, methyl 4-[6-{4-[(methoxycarbonyl)amino]phenyl}-4-(2-methylmorpholin-4-yl)-1H-pyrazolo[3,4-d]pyrimidin-1-yl]piperidine-1-carboxylate] | 3550 | 3200 | 10000 |  |  |  | 
methyl [4-(1-{1-[(6-fluoropyridin-3-yl)methyl]piperidin-4-yl}-4-morpholin-4-yl-1H-pyrazolo[3,4-d]pyrimidin-6-yl) phenyl]carbamate [Compound 453] | 1200 |  |  |  |  | 900 | 6000
